Patent US9605003B2, “Heterocyclic compounds and uses thereof” (Infinity Pharmaceuticals, Inc., priority 2011, dated 2017)

Legend:
PI3Kα = molecular target: T1, PI3Kα (Homo sapiens, UniProt P42336); test: PI3 Kinase HTRF assay, PI3Kα; format: biochemical; conditions: Between 1 μM and 10 μM; read-out: PI3K α IC50
T1 construct: purchased Millipore Corporation 14-602-K
Source text: (§1) A PI3-Kinase HTRF® assay kit (cat No. 33-016) purchased from Millipore Corporation was used to screen compounds provided herein. This assay used specific, high affinity binding of the GRP1 pleckstrin homology (PH) domain to PIP3, the product of a Class 1A or 1B PI3 Kinase acting on its physiological substrate PIP2. During the detection phase of the assay, a complex was generated between the GST-tagged PH domain and biotinylated short chain PIP3. The biotinylated PIP3 and the GST-tagged PH domain recruited fluorophores (Streptavidin-Allophycocyanin and Europium-labeled anti-GST respectively) to form the fluorescence resonance energy transfer (FRET) architecture, generating a stable time-resolved FRET signal. The FRET complex was disrupted in a competitive manner by non-biotinylated PIP3, a product formed in the PI3 Kinase assay.
(§2) PI3 Kinase α, β, γ and δ activity was assayed using the PI3 Kinase HTRF® assay kit (catalogue No. 33-016) purchased from Millipore Corporation. Purified recombinant PI3Kα (catalogue No. 14-602-K), PI3Kβ (catalogue No. 14-603-K), PI3Kγ (catalogue No. 14-558-K) and PI3Kδ (catalogue No. 14-604-K) were obtained from Millipore Corporation. Purified recombinant PI3K enzyme was used to catalyze the phosphorylation of phosphatidylinositol 4,5-bisphosphate (PIP2 at 10 μM) to phosphatidylinositol 3,4,5-trisphosphate (PIP3) in the presence of 10 μM ATP. The assay was carried out in 384-well format and detected using a Perkin Elmer EnVision Xcite Multilabel Reader. Emission ratios were converted into percent inhibitions and imported into GraphPad Prism software. The concentration necessary to achieve inhibition of enzyme activity by 50% (IC50) was calculated using concentrations ranging from 20 μM to 0.1 nM (12-point curve). IC50 values were determined using a nonlinear regression model available in GraphPad Prism 5.

Balb/c splenic B cells = test: B cell activation and proliferation assay (Alamar Blue); format: cell-based; conditions: Mus musculus
Method: The ability of one or more subject compounds to inhibit B cell activitation and proliferation is determined according to standard procedures known in the art. For example, an in vitro cellular proliferation assay is established that measures the metabolic activity of live cells. The assay is performed in a 96 well microtiter plate using Alamar Blue reduction. Balb/c splenic B cells are purified over a Ficoll-Paque™ PLUS gradient followed by magnetic cell separation using a MACS B cell Isolation Kit (Miletenyi). Cells are plated in 90 μl at 50,000 cells/well in B Cell Media (RPMI+10% FBS+Penn/Strep+50 μM bME+5 mM HEPES). A compound provided herein is diluted in B Cell Media and added in a 10 μl volume. Plates are incubated for 30 min at 37° C. and 5% CO2 (0.2% DMSO final concentration). A 50 μl B cell stimulation cocktail is then added containing either 10 μg/ml LPS or 5 μg/ml F(ab′)2 Donkey anti-mouse IgM plus 2 ng/ml recombinant mouse IL4 in B Cell Media. Plates are incubated for 72 hours at 37° C. and 5% CO2. A volume of 15 μL of Alamar Blue reagent is added to each well and plates are incubated for 5 hours at 37° C. and 5% CO2. Alamar Blue fluoresce is read at 560Ex/590Em, and IC50 or EC50 values are calculated using GraphPad Prism 5.

PI3Kβ = molecular target: T2, PI3Kβ (Homo sapiens, UniProt P42338); test: PI3 Kinase HTRF assay, PI3Kβ; format: biochemical; conditions: Between 1 μM and 10 μM; read-out: PI3K β IC50
T2 construct: purchased Millipore Corporation 14-603-K
T2 sequence (P42338 whole entry): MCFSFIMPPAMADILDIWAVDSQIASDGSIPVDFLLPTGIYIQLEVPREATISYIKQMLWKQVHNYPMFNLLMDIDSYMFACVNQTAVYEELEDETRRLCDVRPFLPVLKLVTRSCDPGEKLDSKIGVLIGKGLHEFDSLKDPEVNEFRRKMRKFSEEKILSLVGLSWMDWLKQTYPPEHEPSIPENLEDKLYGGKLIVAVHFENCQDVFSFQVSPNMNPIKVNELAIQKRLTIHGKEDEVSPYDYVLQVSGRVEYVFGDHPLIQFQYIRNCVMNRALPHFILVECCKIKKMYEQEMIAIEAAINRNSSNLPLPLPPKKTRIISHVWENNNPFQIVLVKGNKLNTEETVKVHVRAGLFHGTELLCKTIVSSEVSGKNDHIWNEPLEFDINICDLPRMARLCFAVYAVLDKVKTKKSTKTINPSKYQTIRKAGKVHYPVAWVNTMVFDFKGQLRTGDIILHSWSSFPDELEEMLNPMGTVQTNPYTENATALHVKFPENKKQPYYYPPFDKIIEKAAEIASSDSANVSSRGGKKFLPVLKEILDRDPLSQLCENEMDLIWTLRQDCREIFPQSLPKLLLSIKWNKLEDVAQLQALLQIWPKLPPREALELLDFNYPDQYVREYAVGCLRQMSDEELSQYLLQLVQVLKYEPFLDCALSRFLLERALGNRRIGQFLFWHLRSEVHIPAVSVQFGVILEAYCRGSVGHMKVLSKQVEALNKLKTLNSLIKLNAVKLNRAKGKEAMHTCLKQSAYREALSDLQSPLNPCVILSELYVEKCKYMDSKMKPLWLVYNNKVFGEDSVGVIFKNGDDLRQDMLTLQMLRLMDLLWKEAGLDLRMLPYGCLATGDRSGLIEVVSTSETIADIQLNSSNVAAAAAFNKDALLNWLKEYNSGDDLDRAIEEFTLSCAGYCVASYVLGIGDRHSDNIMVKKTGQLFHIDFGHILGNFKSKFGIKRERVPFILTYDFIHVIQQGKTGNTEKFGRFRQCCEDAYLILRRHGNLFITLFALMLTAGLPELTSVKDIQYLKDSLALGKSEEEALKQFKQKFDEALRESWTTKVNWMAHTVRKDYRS
T2 sequence (P27986 2-724 partner limits assumed): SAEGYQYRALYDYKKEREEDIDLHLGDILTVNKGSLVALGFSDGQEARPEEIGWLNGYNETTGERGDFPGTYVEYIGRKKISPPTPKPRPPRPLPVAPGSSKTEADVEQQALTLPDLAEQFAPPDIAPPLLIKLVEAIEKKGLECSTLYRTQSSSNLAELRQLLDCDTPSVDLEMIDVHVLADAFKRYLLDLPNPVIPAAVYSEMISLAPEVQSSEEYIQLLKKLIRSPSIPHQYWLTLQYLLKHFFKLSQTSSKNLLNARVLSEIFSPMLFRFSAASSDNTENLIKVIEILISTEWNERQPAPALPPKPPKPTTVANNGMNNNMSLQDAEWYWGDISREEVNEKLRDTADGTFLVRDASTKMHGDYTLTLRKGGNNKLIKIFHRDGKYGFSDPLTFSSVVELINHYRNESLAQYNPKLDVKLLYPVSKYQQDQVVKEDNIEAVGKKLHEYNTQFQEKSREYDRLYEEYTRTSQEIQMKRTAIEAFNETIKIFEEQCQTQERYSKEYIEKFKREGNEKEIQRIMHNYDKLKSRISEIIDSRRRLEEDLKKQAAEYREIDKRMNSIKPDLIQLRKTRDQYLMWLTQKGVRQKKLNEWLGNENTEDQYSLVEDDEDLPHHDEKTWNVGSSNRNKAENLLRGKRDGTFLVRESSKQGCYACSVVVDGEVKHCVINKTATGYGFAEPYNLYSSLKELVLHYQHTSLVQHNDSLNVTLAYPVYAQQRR
Source text: as §1, §2

[1] = system: phospho-AKT in RAJI cells; test: PI3Kδ selective cellular assay, phospho-AKT in anti-IgM stimulated RAJI cells; format: cell-based; conditions: Homo sapiens; RAJI cell model
Source text: A compound's ability in selectively inhibiting PI3Kδ can be assessed using RAJI cells, i.e., B lymphocyte cells derived from lymphoma patients. Briefly, serum-starved RAJI cells are stimulated with anti-human IgM, thereby causing signaling through the B-cell receptors, as described in, for example, He et al., Leukemia Research (2009) 33: 798-802. B-cell receptor signaling is important for the activation, differentiation, and survival of B cells and certain B-cell derived cancers. Reduction of phospho-AKT is indicative of compounds that may inhibit B-cell proliferation and function in certain diseases. By monitoring the reduction of phospho-AKT in stimulated RAJI cells (using for example, phospho-AKT antibodies), a compound's potential efficacy in selectively inhibiting PI3Kδ can be assessed.
Certain compounds provided herein (e.g., Compounds 5, 38, 103, 105, 106, 107, 108, and 109) were tested in RAJI cell model using procedures as described above.

[2] = system: phospho-AKT in 786-O cells; test: PI3Kβ selective cellular assay, phospho-AKT in 786-O cells; format: cell-based; conditions: Homo sapiens, 786-0; 786-O cell model
Source text: A compound's ability in selectively inhibiting PI3Kβ can be assessed using 786-O cells, i.e., human kidney carcinoma cell line. Briefly, 786-O cells, in which PI3Kβ is constitutively active, can be treated with test compounds. Test compounds' ability to inhibit AKT phosphorylation in 786-O cells, therefore, is indicative of selective inhibition of PI3Kβ. Thus, by monitoring the reduction of phospho-AKT in 786-O cells (using for example, phospho-AKT antibodies), a compound's potential efficacy in selectively inhibiting PI3Kβ can be assessed.
Certain compounds provided herein (e.g., Compounds 5, 38, 103, and 106) were tested in 786-O cell model using procedures as described above.

[3] = system: phospho-AKT in SKOV-3 cells; test: PI3Kα selective cellular assay, phospho-AKT in SKOV-3 cells; format: cell-based; conditions: Homo sapiens, SK-OV-3; SKOV-3 cell model; range between 100 nM and 1 μM (bounds carry own units)
Source text: A compound's ability in selectively inhibiting PI3Kα can be assessed using SKOV-3 cells, i.e., human ovarian carcinoma cell line. Briefly, SKOV-3 cells, in which mutant PI3Kα is constitutively active, can be treated with test compounds. Test compounds' ability to inhibit AKT phosphorylation in SKOV-3 cells, therefore, is indicative of selective inhibition of PI3Kα. Thus, by monitoring the reduction of phospho-AKT in SKOV-3 cells (using for example, phospho-AKT antibodies), a compound's potential efficacy in selectively inhibiting PI3Kα can be assessed.
Certain compounds provided herein (e.g., Compounds 5, 38, 103, and 106) were tested in SKOV-3 cell model using procedures as described above.

[4] = system: phospho-AKT in RAW 264.7 cells; test: PI3Kγ selective cellular assay, phospho-AKT in C5a stimulated RAW 264.7 cells; format: cell-based; conditions: Mus musculus, RAW264.7, RAW 264.7 cell model
Source text: A compound's ability in selectively inhibiting PI3Kγ can be assessed using RAW264.7 macrophages. Briefly, serum-starved PAW264.7 cells are stimulated with a known GPCR agonist C5a. (See, e.g., Camps et al., Nature Medicine (2005) 11(9): 936-943). Cells can be treated with test compounds prior to, simultaneously with, or subsequent to the stimulation by C5a. RAW 264.7 cells respond to the complement component fragment C5a through activation of the C5a receptor, and the C5a receptor activates macrophages and induces cell migration. Test compounds' ability to inhibit C5a-mediated AKT phosphorylation is indicative of selective inhibition of PI3Kγ. Thus, by monitoring the reduction of phospho-AKT in stimulated RAW 264.7 cells (using for example, phospho-AKT antibodies), a compound's potential efficacy in selectively inhibiting PI3Kγ can be assessed.
Certain compounds provided herein (e.g., Compounds 5, 38, 103, 105, 106, 107, 108, and 109) were tested in RAW 264.7 cell model using procedures as described above.

PI3Kγ = molecular target: T3, PI3Kγ (Homo sapiens, UniProt P48736); test: PI3 Kinase HTRF assay, PI3Kγ; format: biochemical; conditions: Between 1 μM and 10 μM; read-out: PI3K γ IC50
T3 construct: purchased Millipore Corporation 14-558-K
T3 sequence (P48736 whole entry): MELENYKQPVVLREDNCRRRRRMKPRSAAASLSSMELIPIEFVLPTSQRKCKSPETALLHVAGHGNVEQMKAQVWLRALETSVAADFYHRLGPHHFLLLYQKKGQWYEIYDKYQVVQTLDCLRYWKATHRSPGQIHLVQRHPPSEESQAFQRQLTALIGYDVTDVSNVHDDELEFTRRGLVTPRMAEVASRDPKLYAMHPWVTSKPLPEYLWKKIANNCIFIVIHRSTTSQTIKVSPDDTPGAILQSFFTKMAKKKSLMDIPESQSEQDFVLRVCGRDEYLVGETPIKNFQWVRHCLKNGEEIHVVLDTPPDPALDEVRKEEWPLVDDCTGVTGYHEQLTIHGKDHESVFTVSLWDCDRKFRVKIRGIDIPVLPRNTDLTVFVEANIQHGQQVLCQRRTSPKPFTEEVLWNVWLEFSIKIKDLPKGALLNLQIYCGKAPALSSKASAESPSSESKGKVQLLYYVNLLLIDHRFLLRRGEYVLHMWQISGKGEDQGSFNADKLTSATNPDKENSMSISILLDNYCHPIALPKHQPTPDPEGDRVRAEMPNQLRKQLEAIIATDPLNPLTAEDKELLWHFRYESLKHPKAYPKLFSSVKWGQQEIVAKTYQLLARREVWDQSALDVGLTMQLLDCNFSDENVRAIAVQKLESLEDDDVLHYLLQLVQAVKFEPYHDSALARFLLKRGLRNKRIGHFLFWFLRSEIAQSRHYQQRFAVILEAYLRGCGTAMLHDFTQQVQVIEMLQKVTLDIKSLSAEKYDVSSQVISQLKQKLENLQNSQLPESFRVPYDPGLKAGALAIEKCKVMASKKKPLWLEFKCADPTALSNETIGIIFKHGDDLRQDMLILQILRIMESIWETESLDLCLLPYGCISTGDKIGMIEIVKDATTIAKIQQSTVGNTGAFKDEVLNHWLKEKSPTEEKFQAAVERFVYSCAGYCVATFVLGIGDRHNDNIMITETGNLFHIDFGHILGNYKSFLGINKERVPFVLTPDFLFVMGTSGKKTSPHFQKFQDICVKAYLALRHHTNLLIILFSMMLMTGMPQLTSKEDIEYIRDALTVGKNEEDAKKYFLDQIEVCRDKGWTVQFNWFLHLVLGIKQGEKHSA
Source text: as §1, §2

[5] = range between 100 nM and 1 μM (bounds carry own units)

T1 sequence (P42336 whole entry): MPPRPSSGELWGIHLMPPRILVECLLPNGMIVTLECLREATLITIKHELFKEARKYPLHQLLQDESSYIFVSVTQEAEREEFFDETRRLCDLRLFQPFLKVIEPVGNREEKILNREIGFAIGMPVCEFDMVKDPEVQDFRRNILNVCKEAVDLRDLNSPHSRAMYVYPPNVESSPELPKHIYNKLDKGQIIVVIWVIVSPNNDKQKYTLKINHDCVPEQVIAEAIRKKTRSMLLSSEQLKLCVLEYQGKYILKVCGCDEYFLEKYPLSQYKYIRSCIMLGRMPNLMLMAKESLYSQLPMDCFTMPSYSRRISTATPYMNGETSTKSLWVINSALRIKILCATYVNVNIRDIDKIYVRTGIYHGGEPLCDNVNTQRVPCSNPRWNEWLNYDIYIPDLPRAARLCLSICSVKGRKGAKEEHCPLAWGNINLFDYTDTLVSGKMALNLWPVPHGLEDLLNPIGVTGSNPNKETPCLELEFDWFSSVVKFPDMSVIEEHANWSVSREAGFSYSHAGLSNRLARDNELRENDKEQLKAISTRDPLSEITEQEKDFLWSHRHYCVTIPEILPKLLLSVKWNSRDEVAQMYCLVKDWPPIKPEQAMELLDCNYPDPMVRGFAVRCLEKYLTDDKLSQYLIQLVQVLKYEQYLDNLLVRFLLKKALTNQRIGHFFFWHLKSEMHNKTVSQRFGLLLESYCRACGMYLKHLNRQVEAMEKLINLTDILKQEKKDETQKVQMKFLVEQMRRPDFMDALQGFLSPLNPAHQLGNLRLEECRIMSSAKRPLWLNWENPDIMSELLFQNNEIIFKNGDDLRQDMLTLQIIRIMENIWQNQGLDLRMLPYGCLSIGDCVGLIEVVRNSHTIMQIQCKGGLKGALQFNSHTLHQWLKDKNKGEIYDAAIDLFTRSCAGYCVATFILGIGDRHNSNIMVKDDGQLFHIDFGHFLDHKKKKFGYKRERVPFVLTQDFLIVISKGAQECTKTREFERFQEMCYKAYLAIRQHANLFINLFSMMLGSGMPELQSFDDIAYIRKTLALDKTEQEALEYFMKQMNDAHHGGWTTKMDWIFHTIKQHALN
T1 sequence (P27986 whole entry partner): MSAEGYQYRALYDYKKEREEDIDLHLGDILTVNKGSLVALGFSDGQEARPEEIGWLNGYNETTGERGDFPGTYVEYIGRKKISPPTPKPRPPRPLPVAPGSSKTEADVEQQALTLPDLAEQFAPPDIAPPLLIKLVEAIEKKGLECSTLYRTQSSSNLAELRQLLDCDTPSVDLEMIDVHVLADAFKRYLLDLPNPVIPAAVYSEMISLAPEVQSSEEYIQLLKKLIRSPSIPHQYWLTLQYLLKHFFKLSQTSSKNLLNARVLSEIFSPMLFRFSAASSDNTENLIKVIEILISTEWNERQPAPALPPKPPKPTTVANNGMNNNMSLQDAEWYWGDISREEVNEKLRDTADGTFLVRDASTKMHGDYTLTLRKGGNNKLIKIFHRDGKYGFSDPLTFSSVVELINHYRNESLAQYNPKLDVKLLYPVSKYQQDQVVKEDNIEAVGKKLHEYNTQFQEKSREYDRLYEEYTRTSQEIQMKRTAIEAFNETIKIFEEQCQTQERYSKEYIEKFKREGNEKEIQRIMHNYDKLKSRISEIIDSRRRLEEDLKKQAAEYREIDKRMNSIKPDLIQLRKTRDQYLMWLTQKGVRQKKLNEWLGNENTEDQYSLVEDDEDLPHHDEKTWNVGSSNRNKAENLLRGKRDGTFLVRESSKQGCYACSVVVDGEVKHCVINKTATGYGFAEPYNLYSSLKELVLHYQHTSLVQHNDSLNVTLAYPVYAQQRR

IC50 (PI3Kα) | IC50 (PI3Kβ) | Compound | EC50 (Balb/c splenic B cells; Less than 100 nanoMolar) | also measured
1000 to 10000 nM | 1000 to 10000 nM | COc1ncc(-c2cccc3cc([C@H](C)Nc4ncnc5scnc45)n(C4CC4)c(=O)c23)cn1 [Compound 61] | < 100 nM | –
– | 1000 to 10000 nM | C[C@H](Nc1ncnc2scnc12)c1cc2cccc(-c3cnn(C)c3)c2c(=O)n1-c1ccccc1 [Compound 5] | < 100 nM | IC50 [1]: < 100 nM; IC50 [2]: 1000 to 10000 nM; IC50 [3]: 100 to 1000 nM; IC50 [4]: < 100 nM
1000 to 10000 nM | 1000 to 10000 nM | C[C@H](Nc1ncnc2scnc12)c1cc2cccc(/C=C/c3ccccc3)c2c(=O)n1-c1ccccc1 [Compound 49] | – | EC50 (Balb/c splenic B cells; Between 100 nM and 1 μM): 100 to 1000 nM
1000 to 10000 nM | 1000 to 10000 nM | Cc1c(-c2cccc3cc([C@H](C)Nc4ncnc5scnc45)n(-c4ccccc4)c(=O)c23)cnn1C [Compound 43] | < 100 nM | –
1000 to 10000 nM | – | C[C@H](Nc1ncnc2scnc12)c1cc2cccc(-c3cncc(N)c3)c2c(=O)n1-c1ccccc1 [Compound 109] | – | IC50 [1]: < 100 nM; IC50 [4, 5]: 100 to 1000 nM
1000 to 10000 nM | 1000 to 10000 nM | Cc1ccc(-c2cccc3cc([C@H](C)Nc4ncnc5scnc45)n(-c4ccccc4)c(=O)c23)cn1 [Compound 6] | < 100 nM | –
1000 to 10000 nM | 1000 to 10000 nM | C[C@H](Nc1ncnc2scnc12)c1cc2cccc(-c3cnn(C)c3)c2c(=O)n1-c1cccc(F)c1 [Compound 10] | < 100 nM | –
– | – | CC(C)n1c([C@H](C)Nc2ncnc3scnc23)cc2cccc(-c3ccnnc3)c2c1=O [Compound 108] | – | IC50 [1]: < 100 nM; IC50 [4]: 1000 to 10000 nM
1000 to 10000 nM | 1000 to 10000 nM | CCCCc1cccc2cc([C@H](C)Nc3ncnc4scnc34)n(-c3ccccc3)c(=O)c12 [Compound 96] | < 100 nM | –
1000 to 10000 nM | – | C[C@H](Nc1ccnc2scnc12)c1cc2cccc(Cl)c2c(=O)n1-c1cccc(F)c1 [Compound 90] | < 100 nM | –
– | – | C[C@H](Nc1ncnc2scnc12)c1cc2cccc(Cl)c2c(=O)n1-c1ccon1 [Compound 105] | – | IC50 [1]: < 100 nM; IC50 [4, 5]: 100 to 1000 nM
1000 to 10000 nM | 1000 to 10000 nM | COc1ncc(-c2cccc3cc([C@H](C)Nc4ncnc5scnc45)n(-c4ccccc4)c(=O)c23)cc1C(F)(F)F [Compound 58] | < 100 nM | –
– | 1000 to 10000 nM | Cc1nsc2cc(C(C)Nc3ncnc4scnc34)n(-c3ccccc3)c(=O)c12 (stereo not drawn) [Compound 12] | < 100 nM | IC50 (PI3Kγ): 1000 to 10000 nM
– | – | Cc1ncc(-c2cccc3cc([C@H](C)Nc4ncnc5scnc45)n(-c4ccon4)c(=O)c23)cn1 [Compound 107] | – | IC50 [1]: < 100 nM; IC50 [4, 5]: 100 to 1000 nM
1000 to 10000 nM | 1000 to 10000 nM | COc1ccc(-c2cccc3cc([C@H](C)Nc4ncnc5scnc45)n(-c4ccccc4)c(=O)c23)cc1 [Compound 44] | < 100 nM | –
– | – | C[C@H](Nc1ncnc2scnc12)c1cc2cccc(C(=O)N3CCOCC3)c2c(=O)n1-c1ccccc1 [Compound 86] | – | IC50 (PI3Kγ): 1000 to 10000 nM
1000 to 10000 nM | – | C[C@H](Nc1ncnc2scnc12)c1cc2cccc(-c3ccc(N(C)C)nc3)c2c(=O)n1-c1ccccc1 [Compound 47] | < 100 nM | –
1000 to 10000 nM | 1000 to 10000 nM | COc1ncc(-c2cccc3cc([C@H](C)Nc4ncnc5scnc45)n(-c4ccccc4)c(=O)c23)cc1C [Compound 56] | < 100 nM | –
– | – | C[C@H](Nc1ncnc2scc(-c3ccccc3)c12)c1cc2cccc(Cl)c2c(=O)n1-c1ccccc1 [Compound 98] | – | IC50 (PI3Kγ): 1000 to 10000 nM
1000 to 10000 nM | 1000 to 10000 nM | C[C@H](Nc1ncnc2scnc12)c1cc2cccc(-c3cnc(OCc4ccccc4)nc3)c2c(=O)n1-c1ccccc1 [Compound 53] | < 100 nM | –
1000 to 10000 nM | 1000 to 10000 nM | C[C@H](Nc1ncnc2scnc12)c1cc2cccc(-c3cnn(C)c3)c2c(=O)n1C [Compound 82] | – | IC50 (PI3Kγ): 1000 to 10000 nM; EC50 (Balb/c splenic B cells; Between 100 nM and 1 μM): 100 to 1000 nM
1000 to 10000 nM | – | COc1ncc(-c2cccc3cc([C@H](C)Nc4ncnc5scnc45)n(-c4cccc(F)c4)c(=O)c23)cn1 [Compound 60] | < 100 nM | –
1000 to 10000 nM | – | C[C@H](Nc1ncnc2scnc12)c1cc2cccc(-c3cncc(F)c3)c2c(=O)n1-c1ccccc1 [Compound 21] | < 100 nM | –
– | – | Cc1sc2ncnc(N[C@@H](C)c3cc4cccc(Cl)c4c(=O)n3-c3ccccc3)c2c1C [Compound 97] | – | IC50 (PI3Kγ): 1000 to 10000 nM; EC50 (Balb/c splenic B cells; Between 1 μM and 10 μM): 1000 to 10000 nM
1000 to 10000 nM | 1000 to 10000 nM | Cc1ncc(-c2cccc3cc([C@H](C)Nc4ncnc5scnc45)n(C4CC4)c(=O)c23)cn1 [Compound 62] | < 100 nM | –
1000 to 10000 nM | – | COc1ncc(-c2cccc3cc([C@H](C)Nc4ccnc5scnc45)n(-c4ccccc4)c(=O)c23)cn1 [Compound 89] | < 100 nM | –
